Columns and labels:
[1] = target: T1, Dual specificity tyrosine-phosphorylation-regulated kinase 3 (Homo sapiens) (UniProt O43781); assay: Inhibition of DYRK3 (unknown origin) at 10 uM after 120 mins P33 radiolabeled kinase activity assay
T1 sequence (whole entry): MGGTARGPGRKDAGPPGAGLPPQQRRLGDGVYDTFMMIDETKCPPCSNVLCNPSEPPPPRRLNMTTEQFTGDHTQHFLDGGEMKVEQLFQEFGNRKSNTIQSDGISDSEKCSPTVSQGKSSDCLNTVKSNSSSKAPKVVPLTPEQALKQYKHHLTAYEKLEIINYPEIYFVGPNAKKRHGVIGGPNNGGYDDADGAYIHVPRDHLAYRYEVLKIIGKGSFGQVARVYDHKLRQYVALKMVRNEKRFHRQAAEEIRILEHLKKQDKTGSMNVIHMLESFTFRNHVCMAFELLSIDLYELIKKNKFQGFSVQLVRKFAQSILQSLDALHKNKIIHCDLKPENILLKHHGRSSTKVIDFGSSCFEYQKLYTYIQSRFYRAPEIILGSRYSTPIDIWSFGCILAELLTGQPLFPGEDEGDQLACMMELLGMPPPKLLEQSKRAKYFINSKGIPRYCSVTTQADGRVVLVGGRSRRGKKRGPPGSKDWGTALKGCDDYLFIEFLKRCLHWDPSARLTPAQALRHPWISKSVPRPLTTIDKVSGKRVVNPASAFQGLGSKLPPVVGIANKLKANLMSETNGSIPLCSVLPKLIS

[2] = target: T2, Mitogen-activated protein kinase 15 (Homo sapiens) (UniProt Q8TD08); assay: Inhibition of ERK7 (unknown origin) at 10 uM after 120 mins P33 radiolabeled kinase activity assay
T2 sequence (whole entry): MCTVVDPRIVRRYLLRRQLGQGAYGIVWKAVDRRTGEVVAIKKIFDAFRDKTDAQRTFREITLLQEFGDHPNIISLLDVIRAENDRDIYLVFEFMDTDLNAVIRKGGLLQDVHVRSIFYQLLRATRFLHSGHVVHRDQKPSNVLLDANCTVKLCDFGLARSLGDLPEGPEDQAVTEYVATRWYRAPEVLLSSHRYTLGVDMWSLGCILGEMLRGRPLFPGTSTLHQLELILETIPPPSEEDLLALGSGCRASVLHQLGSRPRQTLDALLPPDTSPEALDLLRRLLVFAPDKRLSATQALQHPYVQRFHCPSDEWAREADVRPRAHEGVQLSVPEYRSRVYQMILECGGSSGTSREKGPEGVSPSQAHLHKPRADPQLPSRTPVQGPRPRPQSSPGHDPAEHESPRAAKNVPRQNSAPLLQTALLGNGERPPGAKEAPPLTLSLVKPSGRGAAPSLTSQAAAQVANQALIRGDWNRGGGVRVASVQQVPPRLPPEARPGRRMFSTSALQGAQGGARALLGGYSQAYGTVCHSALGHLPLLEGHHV

[3] = target: T3, Rhodopsin kinase GRK1 (Homo sapiens) (UniProt Q15835); assay: Inhibition of GRK1 (unknown origin) at 10 uM after 120 mins P33 radiolabeled kinase activity assay
T3 sequence (whole entry): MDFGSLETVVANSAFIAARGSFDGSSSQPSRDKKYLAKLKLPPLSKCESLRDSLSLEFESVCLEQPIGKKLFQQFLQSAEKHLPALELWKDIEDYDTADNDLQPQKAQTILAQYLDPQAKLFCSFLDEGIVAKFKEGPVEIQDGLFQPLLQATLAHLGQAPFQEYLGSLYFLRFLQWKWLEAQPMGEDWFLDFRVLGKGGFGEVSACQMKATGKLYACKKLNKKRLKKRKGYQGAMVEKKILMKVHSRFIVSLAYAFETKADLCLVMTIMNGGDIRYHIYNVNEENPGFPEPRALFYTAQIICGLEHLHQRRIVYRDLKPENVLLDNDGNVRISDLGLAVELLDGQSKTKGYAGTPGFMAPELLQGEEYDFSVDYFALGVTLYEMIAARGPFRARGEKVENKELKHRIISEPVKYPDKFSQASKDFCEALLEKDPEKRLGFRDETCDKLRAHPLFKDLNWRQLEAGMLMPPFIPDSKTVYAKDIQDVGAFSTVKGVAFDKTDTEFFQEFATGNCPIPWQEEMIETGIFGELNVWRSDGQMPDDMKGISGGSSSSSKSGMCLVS

[4] = target: T4, Mitogen-activated protein kinase 12 (Homo sapiens) (UniProt P53778); assay: Inhibition of P38gamma (unknown origin) at 10 uM after 120 mins P33 radiolabeled kinase activity assay
T4 sequence (whole entry): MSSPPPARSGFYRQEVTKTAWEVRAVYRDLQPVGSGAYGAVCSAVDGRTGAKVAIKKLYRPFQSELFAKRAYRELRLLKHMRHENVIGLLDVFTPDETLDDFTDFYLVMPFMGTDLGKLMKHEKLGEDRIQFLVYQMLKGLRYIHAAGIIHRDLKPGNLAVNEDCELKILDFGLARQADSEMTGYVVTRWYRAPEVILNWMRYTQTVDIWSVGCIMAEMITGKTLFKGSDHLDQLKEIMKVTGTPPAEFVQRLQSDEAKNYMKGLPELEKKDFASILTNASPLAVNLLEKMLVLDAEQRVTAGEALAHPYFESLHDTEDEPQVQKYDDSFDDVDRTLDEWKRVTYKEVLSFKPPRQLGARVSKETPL

[5] = target: Serine/threonine-protein kinase PAK 2 (Homo sapiens) (UniProt Q13177); assay: Inhibition of PAK2 (unknown origin) at 10 uM after 120 mins P33 radiolabeled kinase activity assay
Sequence of Serine/threonine-protein kinase PAK 2 (Homo sapiens) (Q13177 whole entry): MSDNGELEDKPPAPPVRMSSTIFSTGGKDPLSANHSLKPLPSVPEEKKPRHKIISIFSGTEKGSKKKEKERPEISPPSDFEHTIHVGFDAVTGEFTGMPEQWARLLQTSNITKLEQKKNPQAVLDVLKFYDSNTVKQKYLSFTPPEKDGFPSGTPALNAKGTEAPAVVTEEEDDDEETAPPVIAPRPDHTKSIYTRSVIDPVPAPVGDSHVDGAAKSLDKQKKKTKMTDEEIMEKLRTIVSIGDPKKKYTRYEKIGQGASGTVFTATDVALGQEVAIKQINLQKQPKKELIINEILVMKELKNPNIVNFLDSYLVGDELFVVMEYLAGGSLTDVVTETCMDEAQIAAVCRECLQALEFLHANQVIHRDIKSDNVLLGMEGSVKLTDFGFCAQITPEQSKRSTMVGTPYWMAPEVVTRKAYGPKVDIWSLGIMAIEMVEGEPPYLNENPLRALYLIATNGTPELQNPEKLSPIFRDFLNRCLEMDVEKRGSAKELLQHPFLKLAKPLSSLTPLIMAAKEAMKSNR

[6] = target: Macrophage-stimulating protein receptor (Homo sapiens) (UniProt Q04912); assay: Inhibition of RON (unknown origin) at 10 uM after 120 mins P33 radiolabeled kinase activity assay
Sequence of Macrophage-stimulating protein receptor (Homo sapiens) (Q04912 25-304 limits assumed): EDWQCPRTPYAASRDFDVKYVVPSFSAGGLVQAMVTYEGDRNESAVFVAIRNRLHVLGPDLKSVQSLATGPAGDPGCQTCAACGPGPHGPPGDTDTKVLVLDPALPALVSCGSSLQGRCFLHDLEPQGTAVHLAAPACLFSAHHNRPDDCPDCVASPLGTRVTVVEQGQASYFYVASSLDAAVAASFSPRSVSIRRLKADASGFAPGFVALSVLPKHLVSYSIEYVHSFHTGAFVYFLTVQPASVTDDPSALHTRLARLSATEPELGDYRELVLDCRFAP
Sequence of Macrophage-stimulating protein receptor (Homo sapiens) (Q04912 310-1400 limits assumed): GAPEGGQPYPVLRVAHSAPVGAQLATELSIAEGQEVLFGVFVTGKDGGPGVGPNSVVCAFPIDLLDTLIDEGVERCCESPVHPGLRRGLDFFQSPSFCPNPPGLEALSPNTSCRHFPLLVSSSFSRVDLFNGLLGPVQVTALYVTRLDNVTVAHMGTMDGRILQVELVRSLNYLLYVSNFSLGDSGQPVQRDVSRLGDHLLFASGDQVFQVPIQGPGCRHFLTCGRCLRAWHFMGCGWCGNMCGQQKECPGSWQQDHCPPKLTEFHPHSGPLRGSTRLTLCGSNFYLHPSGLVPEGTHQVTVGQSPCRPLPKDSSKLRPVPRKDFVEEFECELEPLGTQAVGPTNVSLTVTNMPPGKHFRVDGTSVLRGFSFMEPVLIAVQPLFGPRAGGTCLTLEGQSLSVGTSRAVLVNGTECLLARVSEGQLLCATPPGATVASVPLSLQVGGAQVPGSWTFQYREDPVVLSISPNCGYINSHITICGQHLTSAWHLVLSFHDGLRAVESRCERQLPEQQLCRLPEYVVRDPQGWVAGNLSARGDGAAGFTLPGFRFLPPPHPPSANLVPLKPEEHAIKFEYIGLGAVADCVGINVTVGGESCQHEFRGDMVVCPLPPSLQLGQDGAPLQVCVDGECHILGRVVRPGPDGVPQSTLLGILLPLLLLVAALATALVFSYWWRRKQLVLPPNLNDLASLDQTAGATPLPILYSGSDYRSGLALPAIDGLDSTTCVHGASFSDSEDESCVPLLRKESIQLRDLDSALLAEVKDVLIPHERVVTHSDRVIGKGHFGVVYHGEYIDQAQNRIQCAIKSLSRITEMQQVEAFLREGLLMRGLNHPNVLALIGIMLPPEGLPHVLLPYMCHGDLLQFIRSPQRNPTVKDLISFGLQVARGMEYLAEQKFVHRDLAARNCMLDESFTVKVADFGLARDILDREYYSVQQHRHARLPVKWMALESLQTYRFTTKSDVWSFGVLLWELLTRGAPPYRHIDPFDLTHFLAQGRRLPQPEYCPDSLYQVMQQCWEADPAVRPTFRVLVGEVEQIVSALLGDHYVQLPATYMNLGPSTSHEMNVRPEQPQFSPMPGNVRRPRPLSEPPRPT

[7] = target: CDK6/cyclin D1 (Homo sapiens) (UniProt P24385+Q00534); assay: Inhibition of CDK6/cyclin D1 (unknown origin) at 10 uM after 120 mins P33 radiolabeled kinase activity assay; assay type: protein-complex assay

inhibition [1] [%] | inhibition [3] [%] | inhibition [4] [%] | inhibition [5] [%] | inhibition [6] [%] | inhibition [7] [%] | SMILES | inhibition [2] [%]
10.3 | 6.04 | 7.45 | 15.8 | 18.7 | 26.4 | CS(=O)(=O)c1cccc(Nc2nccc(-c3sc(N4CCOCC4)nc3-c3cccc(NS(=O)(=O)c4c(F)cccc4F)c3)n2)c1 | 87
8.42 | 11.4 | -3.25 | 6.88 | 1.69 | 3.54 | COCCNC(=O)c1ccc2c(c1)nc(-c1cnc(-c3ccc(Cl)cc3)[nH]1)n2CCOC | 0.89
71.4 | 7.39 | 97.4 | 9.28 | 70.6 | 17.4 | CC(C)(C)c1cc(NC(=O)Nc2ccc(Oc3ccncc3)cc2)no1 | 99.8

Reference: ChEMBL document CHEMBL3627608, “Crystal structures of human RIP2 kinase catalytic domain complexed with ATP-competitive inhibitors: Foundations for understanding inhibitor selectivity” (Bioorg Med Chem, 2015)
